ChEMBL document CHEMBL4177650, “Synthesis and biological evolution of hydrazones derived from 4-(trifluoromethyl)benzohydrazide” (Bioorg Med Chem Lett, 2017)
Values after ≈ are worked out from the molar mass of the structure shown. Active and inactive are the calls of the source. No cut-off for these calls is given here.

Assays:
[1] = tested on: Aspergillus fumigatus; experiment: Antifungal activity against Aspergillus fumigatus 231 after 24 to 48 hrs by microdilution broth method; format: functional, organism-based
[2] = tested on: MONO-MAC-6; experiment: Cytostatic activity against human MONO-MAC-6 cells incubated overnight followed by compound wash measured after 72 hrs by MTT assay; format: ADME, cell-based; conditions: MONO-MAC-6, 72 h
[3] = tested on: Escherichia coli; experiment: Antibacterial activity against gram-negative Escherichia coli CCM 4517 after 48 hrs by microdilution broth method; format: functional; conditions: CCM 4517, 48 h
[4] = Selectivity index, ratio of IC50 for human HepG2 cells to MIC for Candida glabrata 20/I; format: toxicity; conditions: read-out: Selectivity Index
[5] = tested on: Enterococcus faecalis; experiment: Antibacterial activity against gram-positive Enterococcus faecalis J 14365/08 after 24 hrs by microdilution broth method; format: functional; conditions: J 14365/08, 24 h
[6] = tested on: Mycobacterium avium; experiment: Antimycobacterial activity against Mycobacterium avium 330/88 after 21 days by micromethod; format: functional; conditions: 330/88, 504 h
[7] = tested on: Escherichia coli; experiment: Antibacterial activity against gram-negative Escherichia coli CCM 4517 after 24 hrs by microdilution broth method; format: functional; conditions: CCM 4517, 24 h
[8] = Selectivity index, ratio of IC50 for human HepG2 cells to MIC for Mycobacterium tuberculosis H37Rv 331/88; format: toxicity; conditions: read-out: Selectivity Index
[9] = tested on: Staphylococcus aureus; experiment: Antibacterial activity against gram-positive methicillin-resistant Staphylococcus aureus H 5996/08 after 24 hrs by microdilution broth method; format: functional; conditions: H 5996/08, 24 h
[10] = Selectivity index, ratio of IC50 for human HepG2 cells to MIC for Mycobacterium kansasii 6509/96; format: toxicity; conditions: read-out: Selectivity Index
[11] = tested on: Pichia kudriavzevii; experiment: Antifungal activity against Candida krusei E28 after 24 hrs by microdilution broth method; format: functional; conditions: E28, 24 h
[12] = tested on: Mycobacterium kansasii; experiment: Antimycobacterial activity against Mycobacterium kansasii 6509/80 after 7 days by micromethod; format: functional; conditions: 6509/80, 168 h
[13] = tested on: HepG2; experiment: Cytotoxicity against human HepG2 cells after overnight incubation by MTT assay; format: cell-based
[14] = Selectivity index, ratio of IC50 for human HepG2 cells to MIC for gram-positive Staphylococcus aureus CCM 4516/08; format: toxicity; conditions: read-out: Selectivity Index
[15] = tested on: Mycobacterium tuberculosis; experiment: Antimycobacterial activity against Mycobacterium tuberculosis H37Rv 331/88 after 21 days by micromethod; format: functional; conditions: H37Rv 331/88, 504 h
[16] = tested on: Pseudomonas aeruginosa; experiment: Antibacterial activity against gram-negative Pseudomonas aeruginosa CCM 1961 after 48 hrs by microdilution broth method; format: functional, organism-based
[17] = Cytotoxicity against mouse bone marrow macrophages after overnight incubation by MTT assay; conditions: BMDM
[18] = tested on: Staphylococcus aureus; experiment: Antibacterial activity against gram-positive Staphylococcus aureus CCM 4516/08 after 48 hrs by microdilution broth method; format: functional; conditions: CCM 4516/08, 48 h
[19] = tested on: Mycobacterium kansasii; experiment: Antimycobacterial activity against Mycobacterium kansasii 6509/96 after 21 days by micromethod; format: functional; conditions: 6509/96, 504 h
[20] = tested on: Staphylococcus aureus; experiment: Antibacterial activity against gram-positive methicillin-resistant Staphylococcus aureus H 5996/08 after 48 hrs by microdilution broth method; format: functional; conditions: H 5996/08, 48 h
[21] = tested on: Trichophyton mentagrophytes; experiment: Antifungal activity against Trichophyton mentagrophytes 445 after 72 hrs by microdilution broth method; format: functional; conditions: Trichophyton mentagrophytes, 445, 72 h
[22] = Selectivity index, ratio of IC50 for human HepG2 cells to MIC for Mycobacterium kansasii 6509/80; format: toxicity; conditions: read-out: Selectivity Index
[23] = tested on: Staphylococcus aureus; experiment: Antibacterial activity against gram-positive Staphylococcus aureus CCM 4516/08 after 24 hrs by microdilution broth method; format: functional; conditions: CCM 4516/08, 24 h
[24] = tested on: Klebsiella pneumoniae; experiment: Antibacterial activity against extended spectrum beta-lactamase-positive Klebsiella pneumoniae J 14368/08 after 24 to 48 hrs by microdilution broth method; format: functional, organism-based
[25] = tested on: Trichosporon asahii; experiment: Antifungal activity against Trichosporon asahii 1188 after 24 to 48 hrs by microdilution broth method; format: functional, organism-based
[26] = tested on: Mycobacterium kansasii; experiment: Antimycobacterial activity against Mycobacterium kansasii 6509/80 after 21 days by micromethod; format: functional; conditions: 6509/80, 504 h
[27] = tested on: Trichophyton mentagrophytes; experiment: Antifungal activity against Trichophyton mentagrophytes 445 after 120 hrs by microdilution broth method; format: functional; conditions: Trichophyton mentagrophytes, 445, 120 h
[28] = Selectivity index, ratio of IC50 for human HepG2 cells to MIC for Mycobacterium avium 330/88; format: toxicity; conditions: read-out: Selectivity Index
[29] = tested on: Mycobacterium kansasii; experiment: Antimycobacterial activity against Mycobacterium kansasii 6509/96 after 7 days by micromethod; format: functional; conditions: 6509/96, 168 h
[30] = tested on: Candida albicans; experiment: Antifungal activity against Candida albicans ATCC 44859 after 24 to 48 hrs by microdilution broth method; format: functional, organism-based
[31] = tested on: Klebsiella pneumoniae; experiment: Antibacterial activity against gram-negative Klebsiella pneumoniae D 11750/08 after 24 to 48 hrs by microdilution broth method; format: functional, organism-based
[32] = tested on: Mycobacterium avium; experiment: Antimycobacterial activity against Mycobacterium avium 330/88 after 14 days by micromethod; format: functional; conditions: 330/88, 336 h
[33] = Selectivity index, ratio of IC50 for human HepG2 cells to MIC for Trichophyton mentagrophytes 445; format: toxicity; conditions: read-out: Selectivity Index
[34] = tested on: Nakaseomyces glabratus; experiment: Antifungal activity against Candida glabrata 20/I after 24 hrs by microdilution broth method; format: functional
[35] = tested on: Mycobacterium tuberculosis; experiment: Antimycobacterial activity against Mycobacterium tuberculosis H37Rv 331/88 after 14 days by micromethod; format: functional; conditions: H37Rv 331/88, 336 h
[36] = tested on: Lichtheimia corymbifera; experiment: Antifungal activity against Absidia corymbifera 272 after 24 to 48 hrs by microdilution broth method; format: functional, organism-based
[37] = tested on: Mycobacterium kansasii; experiment: Antimycobacterial activity against Mycobacterium kansasii 6509/80 after 14 days by micromethod; format: functional; conditions: 6509/80, 336 h
[38] = tested on: Nakaseomyces glabratus; experiment: Antifungal activity against Candida glabrata 20/I after 48 hrs by microdilution broth method; format: functional
[39] = tested on: MONO-MAC-6; experiment: Cytotoxicity against human MONO-MAC-6 cells after overnight incubation by MTT assay; format: functional, cell-based
[40] = tested on: Staphylococcus epidermidis; experiment: Antibacterial activity against gram-positive Staphylococcus epidermidis H 6966/08 after 48 hrs by microdilution broth method; format: functional; conditions: H 6966/08, 48 h
[41] = tested on: Candida tropicalis; experiment: Antifungal activity against Candida tropicalis 156 after 48 hrs by microdilution broth method; format: functional; conditions: Candida tropicalis, 156, 48 h
[42] = tested on: Candida tropicalis; experiment: Antifungal activity against Candida tropicalis 156 after 24 hrs by microdilution broth method; format: functional; conditions: Candida tropicalis, 156, 24 h
[43] = tested on: Mycobacterium kansasii; experiment: Antimycobacterial activity against Mycobacterium kansasii 6509/96 after 14 days by micromethod; format: functional; conditions: 6509/96, 336 h
[44] = tested on: Enterococcus faecalis; experiment: Antibacterial activity against gram-positive Enterococcus faecalis J 14365/08 after 48 hrs by microdilution broth method; format: functional; conditions: J 14365/08, 48 h
[45] = tested on: HepG2; experiment: Cytostatic activity against human HepG2 cells incubated overnight followed by compound wash measured after 72 hrs by MTT assay; format: ADME, cell-based; conditions: HepG2, 72 h
[46] = tested on: Pichia kudriavzevii; experiment: Antifungal activity against Candida krusei E28 after 48 hrs by microdilution broth method; format: functional; conditions: E28, 48 h
[47] = tested on: Staphylococcus epidermidis; experiment: Antibacterial activity against gram-positive Staphylococcus epidermidis H 6966/08 after 24 hrs by microdilution broth method; format: functional; conditions: H 6966/08, 24 h

With O=C(N/N=C/c1cc(Cl)ccc1O)c1ccc(C(F)(F)F)cc1 the Activity [1] was “inactive”, the IC50 [2] was 10.3 µM and the MIC [3] was 250 µM (≈ 85.7 µg/mL). The selectivity ratio [4] was greater than 25.6, the MIC [5] was 1.98 µM (≈ 0.679 µg/mL) and the MIC [6] was 125 µM (≈ 42.8 µg/mL). It also gave an MIC [7] of 250 µM (≈ 85.7 µg/mL), a selectivity ratio [8] greater than 1.6 and an MIC [9] of 1.98 µM (≈ 0.679 µg/mL). It also gave a selectivity ratio [10] greater than 1.6, an MIC [11] greater than 125 µM and an MIC [12] of 62.5 µM (≈ 21.4 µg/mL). The IC50 [13] was greater than 100 µM, the selectivity ratio [14] was greater than 50.5 and the MIC [15] was 62.5 µM (≈ 21.4 µg/mL). The Activity [16] was “inactive”, the IC50 [17] was greater than 100 µM and the MIC [18] was 1.98 µM (≈ 0.679 µg/mL). The MIC [19] was 125 µM (≈ 42.8 µg/mL), the MIC [20] was 1.98 µM (≈ 0.679 µg/mL) and the MIC [21] was 1.98 µM (≈ 0.679 µg/mL). The selectivity ratio [22] was greater than 1.6, the MIC [23] was 1.98 µM (≈ 0.679 µg/mL) and the Activity [24] was “inactive”. For the same molecule, the Activity [25] was “inactive”, the MIC [26] was 125 µM (≈ 42.8 µg/mL) and the MIC [27] was 3.9 µM (≈ 1.34 µg/mL). For the same molecule, the selectivity ratio [28] was greater than 1.6, the MIC [29] was 62.5 µM (≈ 21.4 µg/mL) and the Activity [30] was “inactive”. For the same molecule, the Activity [31] was “inactive”, the MIC [32] was 62.5 µM (≈ 21.4 µg/mL) and the selectivity ratio [33] was greater than 25.6. For the same molecule, the MIC [34] was no more than 0.49 µM, the MIC [35] was 62.5 µM (≈ 21.4 µg/mL) and the Activity [36] was “inactive”. It also gave an MIC [37] of 125 µM (≈ 42.8 µg/mL), an MIC [38] of 0.98 µM (≈ 0.336 µg/mL) and an IC50 [39] of 5.8 µM. The MIC [40] was 3.9 µM (≈ 1.34 µg/mL), the MIC [41] was greater than 125 µM and the MIC [42] was greater than 125 µM. It also gave an MIC [43] of 125 µM (≈ 42.8 µg/mL), an MIC [44] of 3.9 µM (≈ 1.34 µg/mL) and an IC50 [45] of 13.6 µM. For the same molecule, the MIC [46] was greater than 125 µM and the MIC [47] was 3.9 µM (≈ 1.34 µg/mL).
